Three compounds from a polymer gas permeability compilation can be followed below.

Consider `*O[Si](*)(C)CC` (repeat unit), for which the CH4 permeability is 474 Barrer, the CO2 permeability was 1510 Barrer, the N2 permeability turned out to be 160 Barrer and the O2 permeability came to 332 Barrer.
Consider `*Oc1ccc(C(=O)c2cccc(-c3cccc(C(=O)c4ccc(Oc5ccc(C(c6ccc(*)cc6)(C(F)(F)F)C(F)(F)F)cc5)cc4)c3)c2)cc1` (repeat unit), for which the CH4 permeability was 0.058 Barrer, the CO2 permeability is 1.95 Barrer, the N2 permeability was determined as 0.0792 Barrer and the O2 permeability was 0.61 Barrer.
In turn, `*Oc1ccc(Oc2cccc(*)c2C#N)c(-c2cc(C)cc(C)c2)c1` (repeat unit) gave a CH4 permeability of 0.06 Barrer, a CO2 permeability of 3.5 Barrer, an H2 permeability of 9.6 Barrer and an N2 permeability of 0.17 Barrer. The O2 permeability worked out at 0.94 Barrer.
